Data: patent publication US5866577A, “Aromatic amidine derivatives and salts thereof” (priority 1991, dated 1999)
Where a name gives a salt, the structure may show the parent alone.

How the values were obtained:
[1] = molecular target: T1, thrombin (Bos taurus, UniProt P00735); experiment: Measurement of Thrombin Inhibition Activity; format: biochemical
T1 construct: thrombin (for topical application use, Sankyo Co., Ltd.); purchased Sankyo Co., Ltd
Description: Measurement of Thrombin Inhibition Activity
A 100 μl portion of Tris-HCl buffered saline (pH 7.45) (TBS) containing 6 mg/ml of fibrinogen (Type 1, Daiichi Pure Chemicals Co., Ltd.) was mixed with 100 μl of physiological saline solution. At 37° C., 100 μl of Tris-HCl buffered saline (pH 7.45) (TBS) containing varying amounts of thrombin (for topical application use, Sankyo Co., Ltd.) was added to the mixture prepared above to measure clotting time using CLOTEC (Sanko Junyaku Co., Ltd.) and to prepare a calibration curve.

[2] = molecular target: human FXa (Homo sapiens, UniProt P00742); experiment: Measurement of Activated Blood Coagulation Factor X (FXa) Inhibition Activity; format: biochemical; details: substrate S-2222, 37° C., 15 minutes
Sequence of human FXa (P00742 235-488 limits assumed): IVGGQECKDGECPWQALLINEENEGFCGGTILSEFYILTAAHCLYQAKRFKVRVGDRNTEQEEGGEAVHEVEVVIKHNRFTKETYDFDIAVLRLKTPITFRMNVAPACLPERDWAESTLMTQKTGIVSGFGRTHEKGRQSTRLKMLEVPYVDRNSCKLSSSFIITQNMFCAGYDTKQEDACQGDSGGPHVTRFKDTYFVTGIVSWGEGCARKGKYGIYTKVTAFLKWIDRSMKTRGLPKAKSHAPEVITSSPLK
Sequence of human FXa (P00742 41-179 limits assumed): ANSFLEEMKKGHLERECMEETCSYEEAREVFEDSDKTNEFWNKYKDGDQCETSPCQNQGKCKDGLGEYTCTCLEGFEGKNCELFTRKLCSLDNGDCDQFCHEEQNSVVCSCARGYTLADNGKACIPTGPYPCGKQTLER
Description: Measurement of Activated Blood Coagulation Factor X (FXa) Inhibition Activity
A 180 μl portion of physiological saline solution containing a compound to be tested was mixed with 200 μl of Tris-HCl buffer (pH 8.4) and 100 μl of 1 mM S-2222 (KabiVitrum AB) aqueous solution, and the mixture was incubated at 37° C. 20 μl of Tris-HCl buffered saline (pH 7.45) containing 0.6 unit/ml of human FXa was added to the mixture. After 15 minutes of incubation at the same temperature, the reaction was stopped by adding 100 μl of 60% acetic acid, and absorbance of the reaction mixture was measured. A reaction mixture with no addition of a test compound was used as a blank, and another reaction mixture in which 60% acetic acid was added prior to the addition of FXa was used as a control.

[3] = tested on: human blood plasma (clotting time); experiment: Measurement of Anticoagulant Activity (plasma clotting time, CT2); format: biochemical; details: concentration which doubles the control clotting time, 37° C.
Description: Measurement of Anticoagulant Activity A blood plasma sample was prepared from human blood using a centrifuge. […] Thereafter, clotting time was measured using CLOTEC (Sanko Junyaku Co., Ltd.). A clotting time measured without adding a compound to be tested was used as a control, and a concentration of the test compound which doubles the control clotting time was calculated (hereinafter referred to as "CT2") as an index of the anticoagulant activity.

[4] = tested on: activated partial thromboplastin time (APTT); experiment: Measurement of Anticoagulant Activity in Oral Administration (APTT); format: in vivo, male STD:Wistar rat; details: rat, 100 mg/kg
Description: Measurement of Anticoagulant Activity in Oral Administration
An aqueous solution of each compound to be tested was administered orally to each male STD:Wistar rat individual under an anesthetic, at a dose of 10 ml/kg body weight. Blood samples were collected periodically and blood plasma preparations were obtained from the samples to measure activated partial thromboplastin time (APTT). In the same manner, APTT was measured by administering pure water and used as a control. A test/control APTT ratio was calculated and used as an index of the anticoagulant activity.

[5] = Measurement of Solubility in Water
Description: A fixed amount of water was added to a varying amounts of each sample, and the mixture was agitated on a shaker at 25° C. for 10 minutes.

[6] = tested on: male Slc:SD rats; experiment: Toxicity Test by Repeated Oral Administration to Rat; format: in vivo; details: rat, in vivo, po, 800 mg/kg
Description: Toxicity Test by Repeated Oral Administration to Rat
Each of the compounds of the present invention was dissolved in distilled water and administered orally to each of five five-week old male Slc:SD rats, at a dose of 800 mg/kg body weight. The oral administration was carried out once a day and repeated for 10 days to observe mortality.

Row | solubility at 10 min [5] [mg/mL] | SMILES | IC50 [1] [nM] | IC50 [2] [nM] | Anti-Coagulation CT2 [3] [µM] | Test/Control APTT Ratio ([4]; 0.5 hr) | Test/Control APTT Ratio ([4]; 1 hr) | Test/Control APTT Ratio ([4]; 2 hr) | Test/Control APTT Ratio ([4]; 4 hr) | Mortal Case [6]
1 | – | CC(=N)N1CCC[C@H]1COc1ccc(C(Cc2cc3cc(C(=N)N)ccc3s2)C(=O)O)cc1.Cl.Cl (single isomer, unassigned; (+)) [Inventive Example 41, Dihydrochloride] | 9000 | 32 | – | – | – | – | – | –
2 | – | CC(=N)N1CCC[C@H]1COc1ccc(C(Cc2cc3cc(C(=N)N)ccc3s2)C(=O)O)cc1.Cl.Cl (single isomer, unassigned; (+)) [Inventive Example 41] | – | – | 0.32 | – | – | – | – | –
3 | – | CC(=N)N1CCC(Oc2ccc(C(Cc3ccc4ccc(C(=N)N)cc4c3)C(=O)O)cc2)CC1.Cl.Cl (single isomer, unassigned; (+)) [Inventive Example 43, (+)-2-[4-[(1-acetimidoyl-4-piperidinyl)oxy]phenyl]-3-(7-amidino-2-naphthyl)propionic Acid Dihydrochloride] | > 400000 | 13 | 0.18 | – | – | – | – | –
4 | – | Cl.Cl.N=C(N)c1ccc2cc(CC(C(=O)O)c3ccc(O[C@H]4CCNC4)cc3)[nH]c2c1 (single isomer, unassigned; (+)) [Inventive Example 48, Dihydrochloride] | 50000 | 360 | – | – | – | – | – | –
5 | – | Cl.Cl.N=C(N)c1ccc2cc(CC(C(=O)O)c3ccc(O[C@H]4CCNC4)cc3)[nH]c2c1 (single isomer, unassigned; (+)) [Inventive Example 48] | – | – | 3 | 1.46 | 1.42 | 1.41 | 1.18 | –
6 | ≥ 600 | Cl.Cl.N=C(N)c1ccc2oc(C(Cc3ccc(O[C@H]4CCNC4)cc3)C(=O)O)cc2c1 (stereo partly drawn) [Inventive Example 21, 2-(5-amidino-2-benzofuranyl)-3-[4-[((3S)-3-pyrrolidinyl)-oxy]phenyl]propionic Acid Dihydrochloride] | – | – | – | – | – | – | – | –
7 | – | Cl.Cl.N=C(N)c1ccc2sc(CC(CC(=O)O)c3ccc(O[C@H]4CCNC4)cc3)cc2c1 (stereo partly drawn) [Inventive Example 61, 4-(5-amidinobenzo[b]thien-2-yl)-3-[4-[((3S)-3-pyrrolidinyl)oxy]phenyl]butyric Acid Dihydrochloride] | – | – | – | 1.40 | 1.28 | 1.21 | 1.09 | –
8 | – | Cl.Cl.N=C(N)c1ccc2[nH]c(CC(C(=O)O)c3ccc(O[C@H]4CCNC4)cc3)cc2c1 (stereo partly drawn) [Inventive Example 68, 3-(5-amidino-2-indolyl)-2-[4-[((3S)-3-pyrrolidinyl)oxy]-phenyl]propionic acid Dihydrochloride] | 190000 | 170 | 1.45 | – | – | – | – | –
9 | – | Cl.Cl.N=C(N)c1ccc2cc(CC(C(=O)O)c3ccc(O[C@H]4CCNC4)cc3)[nH]c2c1 (stereo partly drawn) [Inventive Example 69, 3-(6-amidino-2-indolyl)-2-[4-[((3S)-3-pyrrolidinyl)oxy]-phenyl]propionic Acid Dihydrochloride] | – | – | – | – | – | – | – | 0
10 | ≥ 450 | CCn1c(CC(C(=O)O)c2ccc(O[C@H]3CCNC3)cc2)cc2ccc(C(=N)N)cc21.Cl.Cl (stereo partly drawn) [Inventive Example 73, 3-(6-amidino-1-ethyl-2-indolyl)-2-[4-[((3S)-3-pyrrolidinyl)oxy]phenyl]propionic Acid Dihydrochloride] | – | – | – | – | – | – | – | –
11 | – | CC(=N)N1CC[C@H](Oc2ccc(C(Cc3nc4cc(C(=N)N)ccc4s3)C(=O)O)cc2)C1.Cl.Cl (stereo partly drawn) [Inventive Example 89, 2-[4-[((3S)-1-acetimidoyl-3-pyrrolidinyl)oxy]phenyl]-3-(5-amidino-2-benzothiazolyl)propionic Acid Dihydrochloride] | > 600000 | 600 | 5 | 1.24 | 1.22 | 1.17 | 1.14 | –
12 | – | CCCCCC(=N)N1CC[C@H](Oc2ccc(C(Cc3cc4cc(C(=N)N)ccc4s3)C(=O)O)cc2)C1.Cl.Cl (stereo partly drawn) [Inventive Example 94, 3-(5-amidinobenzo[b]thien-2-yl)-2-[4-[((3S)-1-n-hexanimidoyl-3-pyrrolidinyl)oxy]phenyl]propionic Acid Dihydrochloride] | 370000 | 100 | 1.1 | – | – | – | – | –
13 | – | Cl.Cl.N=C(N)c1ccc2sc(CC(C(=O)O)c3ccc(O[C@H]4CCN(C(=N)C5CC5)C4)cc3)cc2c1 (stereo partly drawn) [Inventive Example 95, 3-(5-amidinobenzo[b]thien-2-yl)-2-[4-[((3S)-1-cyclopropanecarboximidoyl-3-pyrrolidinyl)oxy]phenyl]propionic Acid Dihydrochloride] | 26000 | 160 | 0.8 | – | – | – | – | –
14 | – | CC(=N)N1CCC(Oc2ccc(C(Cc3cc4cc(C(=N)N)ccc4s3)C(=O)O)cc2)CC1.Cl.Cl (stereo not shown) [Inventive Example 97, 2-[4-[(1-acetimidoyl-4-piperidinyl)oxy]phenyl]-3-(5-amidinobenzo[b]thien-2-yl)propionic acid Dihydrochloride] | 170000 | 45 | 0.23 | – | – | – | – | –
15 | – | CCn1c(CC(C(=O)O)c2ccc(OC3CCN(C(C)=N)CC3)cc2)cc2ccc(C(=N)N)cc21.Cl.Cl (stereo not shown) [Inventive Example 98, 2-[4-[(1-acetimidoyl-4-piperidinyl)oxy]phenyl]-3-(6-amidino-1-ethyl-2-indolyl)propionic Acid Dihydrochloride] | 2500 | 11 | 0.3 | 4.07 | 3.96 | 3.37 | 2.19 | –
16 | ≥ 450 | CC(=N)N1CC[C@H](Oc2ccc(C(CC(=O)O)Cc3cc4cc(C(=N)N)ccc4s3)cc2)C1.Cl.Cl (stereo partly drawn) [Inventive Example 104, 3-[4-[((3S)-1-acetimidoyl-3-pyrrolidinyl)oxy]phenyl]4-(5-amidinobenzo[b]thien-2-yl)butyric Acid Dihydrochloride] | 230000 | 86 | 0.64 | – | – | – | – | –
17 | – | CCn1c(CC(C(=O)O)c2ccc(O[C@H]3CCN(C(C)=N)C3)cc2)cc2ccc(C(=N)N)cc21 (stereo partly drawn) [Inventive Example 105, 2-[4-[((3S)-1-(acetimidoyl-3-pyrrolidinyl)oxy]phenyl]-3-(6-amidino-1-ethyl-2-indolyl)propionic Acid Dihydrochloride] | 6800 | 54 | 0.35 | 2.69 | 3.60 | 2.41 | 1.66 | –
18 | – | CC(=N)N1CC[C@H](Oc2ccc(CC(C(=O)O)c3cc4cc(C(=N)N)ccc4s3)cc2)C1 (stereo partly drawn) [Inventive Example 106, 3-[4-[((3S)-1-acetimidoyl-3-pyrrolidinyl)oxy]phenyl]-2-(5-amidinobenzo[b]thien-2-ylpropionic Acid Dihydrochloride] | 100000 | 560 | 2.3 | – | – | – | – | –

Row | SMILES | solubility at 10 min [5] [mg/mL] | IC50 [1] [nM] | IC50 [2] [nM] | Anti-Coagulation CT2 [3] [µM] | Test/Control APTT Ratio ([4]; 0.5 hr) | Test/Control APTT Ratio ([4]; 1 hr) | Test/Control APTT Ratio ([4]; 2 hr) | Test/Control APTT Ratio ([4]; 4 hr) | Mortal Case [6]
19 | CC(=N)N1CCC[C@H]1COc1ccc(C(Cc2cc3cc(C(=N)N)ccc3s2)C(=O)O)cc1.Cl.Cl (stereo partly drawn) [Inventive Example 96, 2-[4-[((2S)-1-acetimidoyl-2-pyrrolidinyl)methoxy]phenyl]-3-(5-amidinobenzo[b]thien-2-yl)propionic Acid Dihydrochloride] | ≥ 400 | 29000 | 44 | 0.54 | 1.68 | 1.64 | 1.57 | 1.42 | –
20 | CC(=N)N1CCC(Oc2ccc(C(Cc3ccc4ccc(C(=N)N)cc4c3)C(=O)O)cc2)CC1.Cl.Cl (stereo not shown) [Inventive Example 108, 2-[4-[(1-acetimidoyl-4-piperidinyl)oxy]phenyl]-3-(7-amidino-2-naphthyl)propionic Acid Dihydrochloride] | ≥ 350 | 250000 | 18 | 0.3 | 2.12 | 2.18 | 1.69 | 1.39 | –
